# Experimental data reported in patent US10335417B2, “Thiazideamide derivative and use thereof” (Institute of Pharmacology and Toxicology Academy of …, priority 2015, dated 2019).
# What was measured:
# [1] = system: BCAO-LBP mice (incomplete global cerebral ischemia); experiment: mouse BCAO-LBP model of incomplete global cerebral ischemia: cerebral MDA content and neurological function score; type: in vivo, Kunmin mice
# From the text: In the Example, Kunmin mice were used as experimental subjects, intragastric (i.g.) administration was used, mouse BCAO-LBP (bilateral carotid artery occlusion with low blood pressure) model was used, and by determining neurological function score and the cerebral malondialdehyde (MDA) content in mice, the compounds were investigated for their protective effects on incomplete global cerebral ischemia in mice when administered prophylactically.
# 2.1.2 Preparation of a drug for intragastric administration: the compound was prepared to a 1.5 mg/ml solution using 0.7% CMC-Na solution.
# 28 mice, which had adapted to the laboratory environment for 1 week, were evenly grouped depending on body weight. The mice were intragastrically administered with 0.7% CMC-Na or one of the compounds, once/d, for 3 d. The groups were as followed:
# Administration group: 12 mice, intragastrically administered at a dose of 0.2 ml/10 g, i.e., the dose of the compound was 30 mg/kg.
# 2.3.1 Mouse bilateral carotid artery ligation: 1 h after the last administration, the mice were subjected to orbital bloodletting to reduce blood pressure (which was about 30% of the total blood volume of the mice), and then fixed in supine position on the operating table, and cut in the middle of neck. Carotid artery was subjected to blunt dissection, and 2 lines were used in ligation for each side. The time counting started after the ligation with the third line, the carotid artery was cut off between the two lines, and the incision was sewn up. In the Sham-operated group, the carotid artery was only separated without ligation. After the operation, the mice were unfixed quickly, and the mice were observed and recorded for the behaviors within 6 h (scoring depending on the following table using blind method) and the death time. The brains were taken quickly after the mice died, the cerebellums were removed, and the MDA content in the whole cerebrum was determined by thiobarbituric acid (TBA).
# The cerebra of mice were taken and weighed, and were prepared into 15% brain homogenate using N.S. 1.2 ml brain homogenate was placed in a 37° C. water bath for 1 h (shaking once every 10 min) and then taken out. 20% trichloroacetic acid 0.6 ml was added, and the mixture was mixed well, and was on standing for 10 min. After centrifugation at 2000 rpm for 10 min, to 1.2 ml supernatant, 0.67% TBA 0.6 ml was added. The mixture was placed in a boiling water bath for 10 min, and was taken out for cooling, and the OD value at a wavelength of 532 nm was determined.
# The experimental data was expressed as x±SEM; SPSS 13.0 statistic software was used. Homogeneity or heterogeneity of variance was determined by one-factor analysis of variance. In the case of homogeneity of variance, LSD test was used; in the case of heterogeneity of variance, Dunnett's T3 test was used. Significant difference among different groups was compared, and P<0.05 indicated statistical significance.
# [2] = system: chick embryo dorsal root ganglion; experiment: in vitro serum-free culture model of chick embryonic dorsal root ganglion: neurite growth score with NGF; type: cell-based; conditions: 48 h, score 0-3, average of five ganglions, control 0.33
# Experimental: The neurotrophic activity of the compounds according to the invention can be embodied in multiple in vitro biological models, such as in vitro serum-free culture model of chick embryonic dorsal root ganglion.
# Experimental method: in a sterile environment, chick embryo, which had been incubated for 8 d, had the spinal and bilateral ganglion exposed under anatomical lens. Dorsal root ganglions were picked one by one using sharp forceps, and seeded in culture bottles spread with rat tail collagen, at a density of 5-6 ganglions per bottle, and two bottles for each dose. After attachment culture in a 37° C., 5% CO2 incubator for 1 h, serum-free medium DMEM containing nerve growth factor (NGF) (0.15 ng/mL), and the compound according to the invention were added. In the control group, only the medium and the same dose of NGF were added. After culture in the incubator for 48 h, the growth of neurite around dorsal root ganglion was observed under inverted phase contrast microscope, which was scored depending on the length and density of neurite.
# Evaluation criteria: 0: no neurite; 1: rare long neurite; 2: relatively long or dense neurite; 3: long and dense neurite.
# in vitro = conditions: dog, MDCK-MDR1
# From the text: MDCK-MDR1 cells were monolayer cells which highly express P-gp transporter after transfection of MDCK (Madin-Darby canine kidney epithelial cell) with MDR1 gene. Due to its density and high expression of efflux protein, the monolayer has similarity compared to blood-brain barrier (BBB) structure and now can be used as one of models for evaluating the ability of passing through BBB. In the invention, MDCK-MDR1 cells were used to study the membrane permeability of the compounds according to the invention, and to primarily evaluate its ability of passing through BBB.
# The frozen MDCK-MDR1 cells were quickly thawed in a 37° C. water bath. To the resuscitated cells, DMEM medium containing 10% FBS was added, and the cells were cultured in an incubator at 37° C., 5% CO2, and a relative humidity of 90%. The medium was changed every other day. After fusion of the cells growing for 1-2 days, the cells were digested with 0.25% trypsin-EDTA (0.2%) mixed digestion solution at 37° C., and were sub-cultured at a certain ratio. The cells for use in experiment were those passaged for 40-60 generations.
# When the cell fusion degree reached 80%, the cells were digested and then suspended in complete medium, and seeded to Millicell plate at 1×10^6 cells·mL^−1. The medium was changed every other day, and 1 week later, the medium was changed every day. After culturing for 5 days, the resistance value reached a constant value (>200 Ω·cm^2), and the cells could be used in the transport experiment.
# After washing with 37° C. HBSS twice, the cells were incubated in a 37° C. culture incubator, wherein Rho-123 was added to the upper wells, and HBSS was added to the bottom wells. The incubation was carried out in a constant temperature shaker, and the solutions from the bottom wells were collected at each time point (0 min, 30 min, 90 min, 120 min), and stored at −20° C. for further use. The amount of Rho-123 permeated to the bottom well was determined by fluorospectrophotometer, wherein the emission wavelength was […], and the excitation wavelength was 530 nm.
# The permeability from cavity-surface to basal surface: drug-containing HBSS 0.35 mL was add to Apical (AP), and blank HBSS 1.2 mL was added to Basolateral (BL). The Millicell was placed at 37° C. in a shaker under shaking at 50 r·min^−1, 50 μL sample was collected from the bottom well at 0, 30, 90, 120 min, respectively, and the same volume of blank HBSS was supplemented. 3 wells were set for each concentration, and to the sample, an internal standard solution (50 μL) and ethyl acetate (350 μL) were added precisely. The mixture was mixed homogeneously under shaking, and centrifuged at 12000 rmp for 5 min. The supernatant (300 μL) was volatilized to dryness, and re-dissolved in 50 μL acetonitrile. The 10 μL resultant solution was used for determination.
# The permeability from basal surface to cavity surface: the drug is added to Basolateral (BL), and blank HBSS was added to Apical (AP), and the other steps were the same as those of the experiment for determining the permeability from cavity-surface to basal surface.
# The apparent permeability coefficient (Papp) of a drug reflects the ability of the drug to pass through cell monolayer and the drug absorption rate and extent. It can be calculated in accordance with the following equation: […]
# wherein, Q represents the amount of drug permeated in the t period, A represents cell surface area, and represents the area (0.6 cm^2) of supporting film in this model, and C0 represents an initial concentration. The unit of Papp is expressed as cm·s^−1.
# By measurement using LC/MS, the concentration of each sample was quantitated using its standard curve (50 nM-10000 nM).
# [3] = compound 100 pM + NGF 0.15 ng/mL
Structure (SMILES),Papp at 120 min (in vitro),"Neurologic deficit score ([1]; 30 mg/kg i.g. once/d for 3 d, behaviour within 6 h after ligation, x ± SEM, model group 3.92, sham 0.00)","neurologic deficit score decreased compared to the group administered with Compound 6 ([1]; 30 mg/kg i.g., BCAO-LBP mice)","MDA content ([1]; whole cerebrum, 30 mg/kg i.g. once/d for 3 d, x ± SEM, model group 40.94, sham 33.15)",Average score (growth of neurites of chick embryo dorsal root ganglion) ([2]; compound 1 pM + NGF 0.15 ng/mL),"Average score (growth of neurites of chick embryo dorsal root ganglion) [2, 3]"
"CCC(C)[C@H](NC(=O)[C@@H]1CSCCN1S(=O)(=O)c1ccc(C)cc1)C(=O)OC (stereo partly drawn) [Compound 8, (2S,3R)-methyl-3-methyl-2((R)-(4-methylphenyl)sulfonyltetrahydro-1,4-thiazin-3-aminoformyl)valerate]",19.2 ×10⁻⁶ cm/s,1.77 ± 0.28,about 15%,34.95 ± 1.55 nmol/g,1.78,2.45
"COC(=O)[C@@H](NC(=O)[C@@H]1CSCCN1S(=O)(=O)c1ccc(C)cc1)C(C)C [Compound 10, (S)-methyl-3-methyl-2((R)-(4-methylphenyl)sulfonyltetrahydro-1,4-thiazin-3-aminoformyl)butyrate]",34.1 ×10⁻⁶ cm/s,,,,1.54,2.38
"Cc1ccc(S(=O)(=O)N2CCSC[C@H]2C(=O)N[C@H](C(=O)OC(C)(C)C)C(C)C)cc1 [Compound 12, (S)-tert-butyl-3-methyl-2((R)-(4-methylphenyl)sulfonyltetrahydro-1,4-thiazin-3-aminoformyl)butyrate]",22.5 ×10⁻⁶ cm/s,,,,1.77,2.48
"COC(=O)[C@H](NC(=O)[C@@H]1CSCCN1S(=O)(=O)c1ccc(C)cc1)C(C)C [Compound 14, (R)-methyl-3-methyl-2((R)-(4-methylphenyl)sulfonyltetrahydro-1,4-thiazin-3-aminoformyl)butyrate]",33.2 ×10⁻⁶ cm/s,,,,1.44,2.35
"COC(=O)[C@H](Cc1ccccc1)NC(=O)[C@@H]1CSCCN1S(=O)(=O)c1ccc(C)cc1 [Compound 16, (S)-methyl-3-phenyl-2((R)-(4-methylphenyl)sulfonyltetrahydro-1,4-thiazin-3-aminoformyl)propionate]",39.7 ×10⁻⁶ cm/s,,,,1.57,2.69
"CCOC(=O)[C@H](Cc1ccccc1)NC(=O)[C@@H]1CSCCN1S(=O)(=O)c1ccc(C)cc1 [Compound 17, (S)-ethyl-3-phenyl-2((R)-(4-methylphenyl)sulfonyltetrahydro-1,4-thiazin-3-aminoformyl)propionate]",22.7 ×10⁻⁶ cm/s,,,,1.75,2.71

# The next lines start with results.
Papp at 120 min (in vitro),Structure (SMILES),"Neurologic deficit score ([1]; 30 mg/kg i.g. once/d for 3 d, behaviour within 6 h after ligation, x ± SEM, model group 3.92, sham 0.00)","neurologic deficit score decreased compared to the group administered with Compound 6 ([1]; 30 mg/kg i.g., BCAO-LBP mice)","MDA content ([1]; whole cerebrum, 30 mg/kg i.g. once/d for 3 d, x ± SEM, model group 40.94, sham 33.15)",Average score (growth of neurites of chick embryo dorsal root ganglion) ([2]; compound 1 pM + NGF 0.15 ng/mL),"Average score (growth of neurites of chick embryo dorsal root ganglion) [2, 3]"
42.3 ×10⁻⁶ cm/s,"Cc1ccc(S(=O)(=O)N2CCSC[C@H]2C(=O)N[C@@H](Cc2ccccc2)C(=O)OC(C)(C)C)cc1 [Compound 19, (S)-tert-butyl-3-phenyl-2((R)-(4-methylphenyl)sulfonyltetrahydro-1,4-thiazin-3-aminoformyl)propionate]",,,,1.55,2.49
25.8 ×10⁻⁶ cm/s,"CCOC(=O)[C@@H](Cc1ccccc1)NC(=O)[C@@H]1CSCCN1S(=O)(=O)c1ccc(C)cc1 [Compound 21, (R)-ethyl-3-phenyl-2((R)-(4-methylphenyl)sulfonyltetrahydro-1,4-thiazin-3-aminoformyl)propionate]",,,,1.79,2.74
37.8 ×10⁻⁶ cm/s,"Cc1ccc(S(=O)(=O)N2CCSC[C@H]2C(=O)N[C@H](Cc2ccccc2)C(=O)OC(C)C)cc1 [Compound 24, (R)-isopropyl-3-phenyl-2((R)-(4-methylphenyl)sulfonyltetrahydro-1,4-thiazin-3-aminoformyl)propionate]",,,,1.89,2.80
27.3 ×10⁻⁶ cm/s,"Cc1ccc(S(=O)(=O)N2CCSC[C@H]2C(=O)N[C@@H](CCc2ccccc2)C(=O)OC(C)C)cc1 [Compound 25, (S)-isopropyl-4-phenyl-2((R)-(4-methylphenyl)sulfonyltetrahydro-1,4-thiazin-3-aminoformyl)butyrate]",,,,1.76,2.68
35.9 ×10⁻⁶ cm/s,"Cc1ccc(S(=O)(=O)N2CCSC[C@H]2C(=O)N[C@H](CCc2ccccc2)C(=O)OC(C)C)cc1 [Compound 26, (R)-isopropyl-4-phenyl-2((R)-(4-methylphenyl)sulfonyltetrahydro-1,4-thiazin-3-aminoformyl)butyrate]",,,,1.80,2.78
